# How the values were obtained:
# multiple myeloma cells = assay: Growth of multiple myeloma cells, trypan blue exclusion assay; format: cell-based; conditions: 24 hours
# Experimental: (§1) The indicated multiple myeloma cells were seeded at 300,000 cells/mL in 6-well plates and cultured in the presence of DMSO (0.2%, control) or various concentrations of NSC697923 for 24 hours. The live and dead cells were counted using the trypan blue exclusion assay. Shown are the means from 3 separate experiments. The average number of live cells in the control was set at 100.
# as §1, with “It has been shown that multiple myeloma cells also depend on NF-kB signaling for survival. It was thus hypothesized that these cells may also sensitive to NSC697923 treatment. […] The indicated” for “The indicated”
# Ubc13 = target: T1, Ubc13 (Homo sapiens, UniProt P61088); assay: In vitro Ubc13~Ub thioester conjugate formation; format: biochemical; conditions: E1, Ubc13-Uev1A, ubiquitin, ATP
# T1 construct: purchased Boston Biochem Inc E2-600 (Ubc13); E2-662 (Uev1A)
# Experimental: (§2) Purified GST or GST-Ubc13 fusion proteins were incubated with the cell extract prepared from OCI-Ly10 cells with or without the presence of NSC697923 as indicated. The amounts of Uev1A protein associated with GST or GST-Ubc13 were analyzed by western blotting. The first lane was loaded with 8% of the input cell lysate. […] The assay was carried out as described in FIG. 4A, except that the loading buffer for SDS-PAGE gel contains no reducing agent, unless otherwise specified, and the reaction was analyzed by western blotting with a Ubc13-specific antibody. […] The assay was carried out as in FIG. 5B, except that UbcHSc, instead of Ubc13 and Uev1A, was used in the ubiquitination reaction and that a UbcHSc antibody was used for western blot analysis.
# (§3) For detecting the E2-ubiquitin (Ubc13˜Ub or UbcH5c˜Ub) thioester conjugates, the reactions were carried out as described above without GST-TRAF6. The reactions were terminated with the SDS-sample buffer without a reducing agent unless specified. The products were analyzed by western blotting with an anti-Ubc13 or anti-UbcHSc antibody as indicated.
# OCI-Ly7 = assay: Proliferation and survival of GCB DLBCL cells (trypan blue, annexin V); format: cell-based; conditions: OCI-Ly7, 24 hours
# Experimental: (§4) In FIG. 8A, the GCB DLBCL cells were plated at the indicated cell concentrations and treated with various concentrations of NSC697923 for 24 hours. The effects of NSC697923 on the growth of these cells were analyzed as described in FIG. 7A. In FIG. 8B, the cells were plated at a concentration of 4×10^5 cells/ml and treated with NSC697923 as in FIG. 8A, and the apoptotic cells were analyzed as described in FIG. 7C.
# (§5) Apoptosis was assayed using the 7AAD/annexin V apoptosis kit (BD Bioscience) as previously described (Kim et al., “Protein Kinase C-Associated Kinase is Required for NF-kappaB Signaling and Survival in Diffuse Large B-Cell Lymphoma Cells,” Blood 111:1644-1653 (2008), which is hereby incorporated by reference in its entirety). Analysis of the cell cycle distribution of the treated cells was carried out with propidium iodide (PI) and BrdU double staining as previously described (DeRan et al., “Assessing G1-to-S-Phase Progression after Genotoxic Stress,” Methods Mol. Biol. 782:221-230 (2011) and Su et al., “DNA Damage Induces Downregulation of Histone Gene Expression Through the G1 Checkpoint Pathway,” EMBO. J. 23:1133-1143 (2004), each of which is hereby incorporated by reference in its entirety).
# SUDHL-6 = assay: as above; format: cell-based; conditions: SUDHL-6, 24 hours
# Experimental: as §4, §5
# OCI-Ly10 cells = assay: Apoptosis of OCI-Ly10 cells (western blot, 7AAD/annexin V flow cytometry); format: cell-based
# Experimental: The indicated ABC DLBCL cells were seeded at 3×10^5 cells/ml in 6-well plates and cultured in the presence of DMSO (0.2%, control) or various concentrations of NSC697923 for 24 hours. The live and dead cells were counted using the trypan blue exclusion assay. Shown are the means from three separate experiments. The average number of live cells in the control was set at 100. […] The levels of the indicated proteins were analyzed by western blotting. For caspase 3 detection, a mixture of an antibody for the uncleaved form and an antibody specific for the cleaved form was used. In FIG. 7C, OCI-Ly10 cells were treated as in FIG. 7A. The apoptotic cells (Annexin V positive cells) were measured by flow cytometry as described in Example 1 infra. A representative result from three independent experiments is depicted. […] BrdU was then added into the culture medium for 30 minutes before the cell-cycle distribution of the treated cells was analyzed as described in Example 1 infra. Shown are the averages from two independent experiments. […] BrdU was then added into the culture medium for 30 minutes before the cell-cycle distribution of the treated cells was analyzed as described in Example 1 infra. Shown are the averages from two independent experiments.
# as §5
# UbcH5c = target: T2, UbcH5c (Homo sapiens, UniProt P61077); assay: In vitro UbcH5c~Ub thioester conjugate formation; format: biochemical
# T2 construct: purchased Boston Biochem Inc E2-627
# Experimental: as §2, §3
# [1] = tested on: constitutive NF-κB signaling in OCI-Ly10 cells; assay: Constitutive NF-κB signaling in ABC DLBCL cells, western blot; format: cell-based; conditions: 3.5 hours
# Experimental: OCI-Ly10 cells were treated with the indicated concentrations of NSC697923 for 3 hours. The levels of Ubc13˜Ub conjugate were analyzed by western blotting using a Ubc13-specific antibody as described in FIG. 4B. […] OCI-Ly10 cells were treated with DMSO (0.1%) or the indicated concentrations of NSC697923 for 3.5 hours. The levels of the indicated proteins were analyzed by western blotting with the respective antibodies.
# ABC DLBCL cells = assay: Growth of ABC DLBCL cells, trypan blue exclusion assay; format: cell-based; conditions: including OCI-Ly3 cells, 24 hours
# Experimental: The indicated ABC DLBCL cells were seeded at 3×10^5 cells/ml in 6-well plates and cultured in the presence of DMSO (0.2%, control) or various concentrations of NSC697923 for 24 hours. The live and dead cells were counted using the trypan blue exclusion assay. Shown are the means from three separate experiments. The average number of live cells in the control was set at 100. […] The levels of the indicated proteins were analyzed by western blotting. For caspase 3 detection, a mixture of an antibody for the uncleaved form and an antibody specific for the cleaved form was used. In FIG. 7C, OCI-Ly10 cells were treated as in FIG. 7A. The apoptotic cells (Annexin V positive cells) were measured by flow cytometry as described in Example 1 infra. A representative result from three independent experiments is depicted. […] BrdU was then added into the culture medium for 30 minutes before the cell-cycle distribution of the treated cells was analyzed as described in Example 1 infra. Shown are the averages from two independent experiments. […] BrdU was then added into the culture medium for 30 minutes before the cell-cycle distribution of the treated cells was analyzed as described in Example 1 infra. Shown are the averages from two independent experiments. […]
# [2] = tested on: p53 signaling in OCI-Ly10 cells; assay: Nuclear p53 and p21 expression, western blot; format: cell-based; conditions: 3.5 hours
# Experimental: OCI-Ly10 cells were treated with indicated concentrations of NSC697923 for 3.5 hours. The level of p53 in the nuclear extract and the level of p21 in the whole cell lysates were analyzed by western blotting.
# primary DLBCL cells = assay: Apoptosis of primary DLBCL cells, annexin V; format: cell-based; conditions: primary cells from two DLBCL patients, 24 hours
# Experimental: The primary cancer cells, prepared from two DLBCL patients and grown in culture medium for seven days, were seeded at 4.5×10^5 cells/mL and treated with the indicated concentrations of NSC697923 for 24 hours. The apoptotic cells were analyzed as described in FIG. 7C. Shown are the averages from two independent experiments.
# as §5
# T1 sequence (P61088 whole entry): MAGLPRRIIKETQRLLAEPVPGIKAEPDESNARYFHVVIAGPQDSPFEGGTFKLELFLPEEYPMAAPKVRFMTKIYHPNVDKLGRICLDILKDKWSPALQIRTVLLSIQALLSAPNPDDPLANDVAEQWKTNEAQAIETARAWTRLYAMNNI
# T1 sequence (Q13404 whole entry partner): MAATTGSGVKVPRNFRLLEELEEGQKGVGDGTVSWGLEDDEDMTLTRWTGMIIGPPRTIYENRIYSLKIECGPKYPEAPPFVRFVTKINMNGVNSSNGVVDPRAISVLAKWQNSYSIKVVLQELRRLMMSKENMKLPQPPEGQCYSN
# T2 sequence (P61077 whole entry): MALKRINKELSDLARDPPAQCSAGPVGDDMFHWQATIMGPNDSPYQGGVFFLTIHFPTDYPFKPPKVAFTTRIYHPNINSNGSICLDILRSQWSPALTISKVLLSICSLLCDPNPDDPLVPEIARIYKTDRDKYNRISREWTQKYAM
smiles,measurement,setting,value
"Cc1ccc(S(=O)(=O)c2ccc([N+](=O)[O-])o2)cc1 [NSC697923, 2-nitro-5-tosylfuran]",growth of multiple myeloma cells,multiple myeloma cells,inhibits the growth of multiple myeloma cells
same,formation of Ubc13~Ub thioester conjugate,Ubc13,inhibited formation of this thioester conjugate
same,proliferation and survival,OCI-Ly7,inhibited proliferation and survival
same,proliferation and survival,SUDHL-6,inhibited proliferation and survival
same,PARP,OCI-Ly10 cells; 5 hours,cleavage of PARP
same,caspase 3,OCI-Ly10 cells; 5 hours,activation of caspase 3
same,annexin V-positive cells,OCI-Ly10 cells; 24 hours,increase in annexin V-positive cells
same,formation of UbcH5c~Ub conjugate,UbcH5c,is not inhibited
same,expression of Mc1-1,[1],is inhibited
same,expression of p100,[1],is inhibited
same,phosphorylation of IKK,[1],inhibited phosphorylation
same,phosphorylation of IκBα,[1],inhibited phosphorylation
same,proliferation and survival of ABC DLBCL cells,ABC DLBCL cells,induced proliferation arrest and cell death
same,nuclear level of p53 protein,[2],increased
same,p21 expression,[2],increased
same,Annexin-positive (apoptotic) cells,primary DLBCL cells,increase in Annexinpositive (apoptotic) cells

# From patent US9458123B2, “Methods, pharmaceutical compositions, therapeutic systems, and compounds for treating B cell malignancies” (University of Rochester, priority 2012, dated 2016)
